Read-outs that look alike come from different tables or passages of the source.
Assays:
[1] = target: maltase (porcine intestinal mucosa); test: Glucosidase inhibitory activity, maltase (maltose as substrate); assay type: biochemical; conditions: read-out: IC50 (maltase), 50% inhibition concentration, pH 6.8, 37° C., 10 minutes
Description: (§1) The method of assaying the glucosidase inhibitory activity.
(§2) The inhibitory activities against maltase or saccharase prepared from porcine intestinal mucosa [prepared in accordance with the procedure as described by B. Borgstrom and A. Dahlqvist in Acta Chem. Scand., 12, 1997-2006, (1958)], when maltose or sucrose is used as a substrate, were determined by adding, to 0.25 ml of a solution of an enzyme prepared by diluting suitably with 0.02M phosphate buffer (pH 6.8), 0.5 ml of an inhibitory substance to be tested (compound [I] or a pharmaceutically acceptable salt thereof) in the same buffer and 0.25 ml of 0.05M maltose or 0.05M sucrose as the substrate in the same buffer, allowing the mixture to react at 37° C. for 10 minutes, then adding 3 ml of Glucose B-Test Reagent (a glucose oxidase reagent for measurement of glucose, produced by Wako Pure Chemical Co., Japan), further warming the mixture at 37° C. for 20 minutes and measuring the absorbance of the colored reaction solution at 505 nm.

[2] = target: T1, saccharase (porcine intestinal mucosa) (Sus scrofa, UniProt P56729); test: Glucosidase inhibitory activity, saccharase (sucrose as substrate); assay type: biochemical
T1 construct: prepared from porcine intestinal mucosa; from tissue; host or cells: porcine intestinal mucosa
T1 sequence (P56729 with tags, fused parts or gaps limits assumed): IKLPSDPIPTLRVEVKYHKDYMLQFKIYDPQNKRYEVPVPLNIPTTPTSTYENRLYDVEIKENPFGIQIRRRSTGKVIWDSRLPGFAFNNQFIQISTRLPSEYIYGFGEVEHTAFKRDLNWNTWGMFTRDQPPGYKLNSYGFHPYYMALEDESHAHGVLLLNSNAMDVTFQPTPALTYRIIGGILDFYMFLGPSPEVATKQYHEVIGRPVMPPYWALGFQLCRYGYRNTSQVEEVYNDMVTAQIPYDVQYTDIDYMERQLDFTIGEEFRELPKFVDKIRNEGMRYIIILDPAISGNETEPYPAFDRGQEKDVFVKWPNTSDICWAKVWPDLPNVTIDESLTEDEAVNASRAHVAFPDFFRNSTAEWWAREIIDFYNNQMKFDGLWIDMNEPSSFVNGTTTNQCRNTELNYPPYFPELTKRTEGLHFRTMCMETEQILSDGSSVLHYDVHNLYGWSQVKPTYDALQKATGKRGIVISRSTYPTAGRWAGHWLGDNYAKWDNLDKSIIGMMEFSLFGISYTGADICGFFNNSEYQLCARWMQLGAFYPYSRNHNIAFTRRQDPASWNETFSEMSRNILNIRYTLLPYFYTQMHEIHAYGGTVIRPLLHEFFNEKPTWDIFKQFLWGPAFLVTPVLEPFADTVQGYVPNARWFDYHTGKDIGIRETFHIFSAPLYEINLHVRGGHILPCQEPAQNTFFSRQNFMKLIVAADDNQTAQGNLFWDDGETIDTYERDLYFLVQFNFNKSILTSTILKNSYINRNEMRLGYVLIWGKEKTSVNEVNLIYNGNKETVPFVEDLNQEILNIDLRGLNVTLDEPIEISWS
T1 sequence (P56729 with tags, fused parts or gaps partner limits assumed): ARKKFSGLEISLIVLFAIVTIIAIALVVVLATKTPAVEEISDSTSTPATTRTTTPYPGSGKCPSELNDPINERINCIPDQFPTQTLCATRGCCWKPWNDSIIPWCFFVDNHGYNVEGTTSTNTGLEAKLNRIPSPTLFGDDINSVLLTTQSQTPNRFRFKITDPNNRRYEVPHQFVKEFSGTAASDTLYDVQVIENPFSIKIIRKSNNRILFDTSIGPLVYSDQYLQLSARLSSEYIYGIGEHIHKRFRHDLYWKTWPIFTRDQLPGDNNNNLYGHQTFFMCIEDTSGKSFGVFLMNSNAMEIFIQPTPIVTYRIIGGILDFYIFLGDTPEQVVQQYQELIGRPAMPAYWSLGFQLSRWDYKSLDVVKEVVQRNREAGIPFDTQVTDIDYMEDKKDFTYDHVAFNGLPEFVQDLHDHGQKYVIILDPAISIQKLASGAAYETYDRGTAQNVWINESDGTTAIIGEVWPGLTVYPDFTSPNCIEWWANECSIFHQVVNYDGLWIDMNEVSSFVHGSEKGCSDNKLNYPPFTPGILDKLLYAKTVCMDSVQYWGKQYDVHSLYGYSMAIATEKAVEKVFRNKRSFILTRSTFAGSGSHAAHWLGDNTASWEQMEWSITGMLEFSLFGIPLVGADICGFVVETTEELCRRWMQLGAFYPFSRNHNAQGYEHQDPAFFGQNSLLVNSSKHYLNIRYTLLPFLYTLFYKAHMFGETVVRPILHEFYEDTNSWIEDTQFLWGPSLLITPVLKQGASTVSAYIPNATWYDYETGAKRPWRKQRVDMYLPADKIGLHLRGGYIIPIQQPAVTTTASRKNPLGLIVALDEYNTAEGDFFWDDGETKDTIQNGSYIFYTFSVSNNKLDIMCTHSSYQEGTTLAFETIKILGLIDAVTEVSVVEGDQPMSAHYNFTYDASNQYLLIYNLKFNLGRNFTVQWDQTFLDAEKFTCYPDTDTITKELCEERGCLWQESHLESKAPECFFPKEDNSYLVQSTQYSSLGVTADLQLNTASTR
Description: as §1, §2

[3] = read-out: IC50 (saccharase), 50% inhibition concentration, pH 6.8, 37° C., 10 minutes

| Compound | IC50 [1] | IC50 [2, 3] | IC50 ([2]; pH 6.8, 37° C., 10 minutes) |
| --- | --- | --- | --- |
| CO[C@H]1O[C@H](C)[C@H](N[C@H]2C[C@H](CO)[C@@H](O)[C@H](O)[C@H]2O)[C@H](O)[C@H]1O [Example 1,6-deoxygalactopyranoside isomer, Methyl 4-[(1S,2S)-(2,4/3,5)-2,3,4-trihydroxy-5-hydroxymethylcyclohexyl]amino-4,6-dideoxy-α-D-galactopyranoside] | – | – | 5600 nM |
| CO[C@H]1O[C@H](C)[C@@H](N[C@H]2C[C@H](CO)[C@@H](O)[C@H](O)[C@H]2O)[C@H](O)[C@H]1O [Example 1,6-deoxyglucopyranoside isomer, Methyl 4-[(1S,2S)-(2,4/3,5)-2,3,4-trihydroxy-5-hydroxymethylcyclohexyl]amino-4,6-dideoxy-α-D-glucopyranoside] | 1800 nM | – | 740 nM |
| CO[C@H]1O[C@H](CO)[C@H](N[C@H]2C[C@H](CO)[C@@H](O)[C@H](O)[C@H]2O)[C@H](O)[C@H]1O [Example 3, Galactopyranoside isomer, Methyl 4-[(1S,2S)-(2,4/3,5)-2,3,4-trihydroxy-5-hydroxymethylcyclohexyl]amino-4-deoxy-α-D-galactopyranoside] | – | – | 1000 nM |
| CO[C@H]1O[C@H](CO)[C@@H](N[C@H]2C[C@H](CO)[C@@H](O)[C@H](O)[C@H]2O)[C@H](O)[C@H]1O [Example 3, Glucopyranoside isomer, Methyl 4-[(1S,2S)-(2,4/3,5)-2,3,4-trihydroxy-5-hydroxymethylcyclohexyl]amino-4-deoxy-α-D-glucopyranoside] | 4400 nM | – | 580 nM |
| O=C(N[C@H]1C[C@H](CO)C(N[C@H]2C[C@H](CO)[C@@H](O)[C@H](O)[C@H]2O)[C@H](O)[C@H]1O)OCc1ccccc1 (stereo partly drawn) [Example 5, [(1S,2S)-(2,4/3,5)-2,3,4-Trihydroxy-5-hydroxymethylcyclohexyl][(2S)-(2,6/3,4)-4-benzyloxycarbonylamino-2,3-dihydroxy-6-hydroxy-methylcyclohexyl]amine] | – | – | 700 nM |
| CCOC(=O)NC1CC(NC(=O)OCC)C(N[C@H]2C[C@](O)(CO)[C@@H](O)[C@H](O)[C@H]2O)C(O)C1O (some centres unmarked) [Example 11, N-(2,4-Diethoxycarbonylamino-5,6-dihydroxycyclohexyl)valiolamine] | 9000 nM | 4900 nM | – |
| OC[C@H]1C[C@H](N[C@@H]2C[C@H](CO)[C@@H](O)[C@H](O)[C@H]2O)[C@H](O)[C@@H](O)[C@@H]1O [Example 17, (1R,2S) isomer, N-[(1R,2S)-(2,4/3,5)-2,3,4-trihydroxy-5-hydroxymethylcyclohexyl]validamine] | 2200 nM | – | 270 nM |
| C[C@H]1O[C@H](O[C@H]2[C@H](O)[C@@H](O)[C@@H]3OC[C@H]2O3)[C@H](O)[C@@H](O)[C@@H]1N[C@H]1C[C@](O)(CO)[C@@H](O)[C@H](O)[C@H]1O [Example 25, isomer (b)] | 130 nM | – | 25 nM |
| C[C@H]1O[C@H](O[C@H]2[C@H](O)[C@@H](O)C(O)O[C@@H]2CO)[C@H](O)[C@@H](O)[C@@H]1N[C@H]1C[C@](O)(CO)[C@@H](O)[C@H](O)[C@H]1O (stereo partly drawn) [Example 28, 4-O-α-[4-[(1S)-(1,2,4,5(OH)/3,5(CH2 OH))-(2,3,4,5-Tetrahydroxy-5-(hydroxymethyl)cyclohexyl)amino]-4,6-dideoxy-D-glucopyranosyl]-D-glucopyranose] | 120 nM | – | 80 nM |
| OC[C@H]1C[C@H](NC2[C@@H](O)C(O)O[C@H](CO)[C@H]2O)[C@H](O)[C@@H](O)[C@@H]1O (some centres unmarked) [N-(2,3,5-trihydroxy-6-hydroxymethyltetrahydropyran-4-yl)validamine] | 1900 nM | 170 nM | – |
| OCC1=C[C@H](NC2[C@@H](O)C(O)O[C@H](CO)[C@H]2O)[C@H](O)[C@@H](O)[C@@H]1O (some centres unmarked) [N-(2,3,5-trihydroxy-6-hydroxymethyltetrahydropyran-4-yl)valienamine] | 31000 nM | 450 nM | – |
| CO[C@H]1O[C@H](C)[C@@H](N[C@H]2C=C(CO)[C@@H](O)[C@H](O)[C@H]2O)[C@H](O)[C@H]1O [Reference Example 40,6-deoxyglucopyranoside isomer, Methyl 4-[(1S,6S)-(4,6/5)-4,5,6-trihydroxy-3-hydroxymethyl-2-cyclohexen-1-yl]amino-4,6-dideoxy-α-D-glucopyranoside] | – | – | 700 nM |

The next lines start with the values.

| IC50 [1] | IC50 [2, 3] | IC50 ([2]; pH 6.8, 37° C., 10 minutes) | Compound |
| --- | --- | --- | --- |
| 2900 nM | 1600 nM | – | N[C@H]1C[C@H](CO)C(N[C@H]2C[C@H](CO)[C@@H](O)[C@H](O)[C@H]2O)[C@H](O)[C@H]1O (single isomer, unassigned) [Example 6, first eluted isomer] |
| – | 78000 nM | – | N[C@H]1C[C@H](CO)C(N[C@H]2C[C@H](CO)[C@@H](O)[C@H](O)[C@H]2O)[C@H](O)[C@H]1O (single isomer, unassigned) [Example 6, later eluted isomer] |
| 3300 nM | 250 nM | – | N[C@H]1C[C@H](CO)C(N[C@H]2C[C@](O)(CO)[C@@H](O)[C@H](O)[C@H]2O)[C@H](O)[C@H]1O (single isomer, unassigned) [Example 8,4-amino derivative from the first eluted component of Example 7] |
| 2800 nM | 230 nM | – | N[C@H]1C[C@H](CO)C(N[C@H]2C[C@](O)(CO)[C@@H](O)[C@H](O)[C@H]2O)[C@H](O)[C@H]1O (single isomer, unassigned) [Example 8,4-amino derivative from the later eluted component of Example 7] |
| 1000 nM | 88 nM | – | NC1CC(N)C(N[C@H]2C[C@](O)(CO)[C@@H](O)[C@H](O)[C@H]2O)C(O)C1O (single isomer, unassigned) [Example 12, Isomer D, N-(2,4-Diamino-5,6-dihydroxycyclohexyl)valiolamine] |
| – | 35 nM | – | C[C@H]1CC(O)[C@H](O)[C@@H](O)[C@@H]1N[C@H]1C[C@](O)(CO)[C@@H](O)[C@H](O)[C@H]1O (single isomer, unassigned) [Example 21, isomer (a)] |
| – | 36 nM | – | C[C@H]1CC(O)[C@H](O)[C@@H](O)[C@@H]1N[C@H]1C[C@](O)(CO)[C@@H](O)[C@H](O)[C@H]1O (single isomer, unassigned) [Example 21, isomer (b)] |
| 320 nM | – | 620 nM | CO[C@H]1O[C@H](CO)[C@H](N[C@H]2C[C@](O)(CO)[C@@H](O)[C@H](O)[C@H]2O)[C@H](O)[C@H]1O [Example 4, Galactopyranoside isomer, Methyl 4-[(1S,2S)-(2,4,5(OH)/3,5-(CH2 OH))-2,3,4,5-tetrahydroxy-5-hydroxymethylcyclohexyl]amino-4-deoxy-α-D-galactopyranoside] |
| 72 nM | – | 80 nM | CO[C@H]1O[C@H](CO)[C@@H](N[C@H]2C[C@](O)(CO)[C@@H](O)[C@H](O)[C@H]2O)[C@H](O)[C@H]1O [Example 4, Glucopyranoside isomer, Methyl 4-[(1S,2S)-(2,4,5(OH)/3,5(CH2 OH))-2,3,4,5-tetrahydroxy-5-hydroxymethylcyclohexyl]amino-4-deoxy-α-D-glucopyranoside] |
| – | 880 nM | – | NC1CC(N)C(N[C@H]2C[C@H](CO)[C@@H](O)[C@H](O)[C@H]2O)C(O)C1O (some centres unmarked) [Example 14, N-(2,4-Diamino-5,6-dihydroxycyclohexyl)validamine] |
| 44 nM | – | 48 nM | OC[C@H]1C[C@@H](N[C@H]2C[C@](O)(CO)[C@@H](O)[C@H](O)[C@H]2O)[C@H](O)[C@@H](O)[C@@H]1O [Example 18, (1R,2S) isomer, N-[(1R,2S)-(2,4/3,5)-2,3,4-trihydroxy-5-hydroxymethylcyclohexyl]valiolamine] |
| – | – | 5600 nM | OC[C@H]1C[C@H](N[C@H]2C[C@](O)(CO)[C@@H](O)[C@H](O)[C@H]2O)[C@H](O)[C@@H](O)[C@@H]1O [Example 18, (1S,2S) isomer, N-[(1S,2S)-(2,4/3,5)-2,3,4-trihydroxy-5-hydroxymethylcyclohexyl]valiolamine] |
| – | – | 53 nM | C[C@H]1C[C@H](N)[C@H](O)[C@@H](O)[C@H]1N[C@H]1C[C@](O)(CO)[C@@H](O)[C@H](O)[C@H]1O [Example 20, isomer (b), N-[(1S,2S)-(2,6/3,4)-4-amino-2,3-dihydroxy-6-methylcyclohexyl]valiolamine] |
| 110 nM | 90 nM | – | OC[C@H]1OC(O)[C@H](O)C(N[C@H]2C[C@](O)(CO)[C@@H](O)[C@H](O)[C@H]2O)[C@@H]1O (some centres unmarked) [N-(2,3,5-trihydroxy-6-hydroxymethyltetrahydropyran-4-yl)valiolamine] |
| – | 37000 nM | – | CC1(C)O[C@H]2O[C@H]([C@H](O)CO)C(N[C@H]3C[C@](O)(CO)[C@@H](O)[C@H](O)[C@H]3O)[C@H]2O1 (some centres unmarked) [N-[2,3-O-isopropylidene-2,3-dihydroxy-5-(1,2-dihydroxyethyl)tetrahydrofuran-4-yl]valiolamine] |
| – | – | 24000 nM | CC1(O)CC(N)C(O)C(O)C1O (centres unmarked) [compound 26, 7-Deoxyvaliolamine] |

— patent publication US4595678A, “N-substituted pseudo-aminosugars and pharmaceutical compositions containing same” (Takeda Chemical Industries, Ltd., priority 1982, dated 1986)
